Experimental data as given in patent US6867179B1, “Methods of inducing hair growth and coloration” (Trustees of Boston University, priority 1994, dated 2005).
No end group written: not given here.

What was measured:
Bax = Bax level in beta-amyloid treated melanocytes (Western blot); type: cell-based, human
Method: To investigate the mechanism of -amyloid-mediated melanocyte death, Bax levels in melanocytes treated with 25 uM of 1-40 or 25-35-amyloid peptides was examined. Within 4 days of treatment, Bax was induced 3 fold in melanocytes stimulated either with the beta-amyloid 1-40 or 25-35 fragments as compared to melanocytes treated with the 40-1 control fragment or an irrelevant HPLC purified protein of similar size.
Melanocytes were maintained as above. Four days after addition of 25 microM of beta-amyloid fragments 1-40 40-1 or 25-35; or 25 microM of HPLC-purified bovine corticotropin releasing factor (CRF) (Bachem Calif.) (MW 4.7 kD) as an additional negative control, cells were extracted in RIPA buffer (50 mM Tris-HCl [pH 8.0], 0.15 M NaCl, 0.5% sodium deoxycholate, 1% Triton X-100) in the presence of 1 microg/ml aprotinin and 75 microg/ml phenylmethylsulfonyl fluoride (PMSF), sonicated for 1-3 seconds and centrifuged. 40 microg of protein per lane were separated on 12% SDS/PAGE and blotted onto nitrocellulose paper (overnight, 25C). To verify equal loading a duplicate 13% SDS/PAGE was performed and stained with Coomasie Blue R250 stain. […] Bound antibodies were detected using enhanced chemiluminescence kit (Amersham Corp.). […]

human p75 = test: p75 apoptotic signaling in 3T3-p75 cells (aggregation, c-jun, JNK, caspase-3, DNA fragmentation); type: cell-based; details: peptide pretreatment, then βA
Method: To investigate p75 early signaling, NIH-3T3 cells engineered to constitutively express human p75 (3T3-p75), were stimulated with a known p75 ligand β amyloid (βA), and the distribution of p75 on the cell surface was analysed using immunohistochemistry and confocal laser microscopy. […] (FIG. 13)
To determine if the initial step of p75 aggregation is required for initiation of apoptosis, 3T3-p75 were pretreated with an HPLC purified cyclic peptide (CATDIKGAEC) (SEQ ID NO:9) that binds the ligand binding site of p75, and then cultures were stimulated with βA or with diluent alone.

p75^NTR-NIH 3T3 cells = test: Effect of KGA-containing peptides on survival of beta-amyloid treated p75NTR-NIH 3T3 cells; type: cell-based; details: 250 nM peptide, 250 nM preaggregated beta-amyloid 1-40, 72 hours
Method: p75^NTR-NIH 3T3 cells were maintained in DME supplemented with 10% calf serum until 80% confluent. The cells were washed and incubated in serum free DME containing transferrin (5 microg/ml) and insulin (5 microg/ml). Triplicate dishes were supplemented with diluent or preaggregated beta-amyloid 1-40 (250 nM) as […]. […] After 72 hours, cells were rinsed in PBS and cultures were incubated in 0.25% trypsin at 37° C. Cell yields were determine using a particle counter.

p75 = p75 signal transduction in melanocytes (JNK activation, intracellular ceramide); type: cell-based, human
Method: To investigate p75 signal transduction, it was first determined by RT-PCR that trkA and trkC are not expressed in MC maintained in choleragen/TPA-free medium. MC were incubated with 10 ng/ml nerve growth factor (NGF) or neurotrophin-3 (NT-3) for 30 minutes and c-Jun amino terminal kinase (JNK) activation was determined. […] Furthermore, within 3 hours p75 activation by NGF, but not by NT-3, lead to a 2-fold increase of intracellular ceramide. As before, ceramide increase was abrogated by pre-incubation with the cyclic peptide. Because in cell lines, UV irradiation directly activates cell surface receptors such as Fas and the TNFα receptor, sham- or UV-irradiated MC were used to determine p75 activation.

BCL-2 = BCL-2 antisense oligonucleotides in UV-irradiated MM4 cells with or without NGF; type: cell-based, human
From the text: Purified phosphorothioate oligonucleotides were purchased from Quality Controlled Biochemicals, Inc. (Hopkinton, Mass.). 19 mer oligonucleotides were designed based on the published human BCL-2 sequence (Tsujimoto, Y. and Croce, C. M., Proc. Natl. Acad. Sci. USA, 83:5214-5218 (1986)). The sequence chosen was directed against the […] of the coding region starting 4 bases before the methionine initiation site. Nonsense oligonucleotides were used as control. Sequences used (all written 5′ to 3′): Antisense CCCAGCGTGCGCCATCCTT (SEQ ID NO: 7); Nonsense CTCCCACTCGTCATTCGAC (SEQ ID NO: 8).
MM4 cells were maintained in 60 mm diameter tissue culture dishes in 55.3% DME, 27.6% L15, 15% FBS, 1% nonessential amino acids (GIBCO BRL), 2 mM glutamine and 10 µg/ml insulin. Near confluent cells were UV irradiated with 10 mJ/cm^2. Immediately after irradiation cells were incubated with 10 uM antisense or nonsense BCL-2 oligonucleotides in suspension at […] for 30 minutes. Then cells were plated in tissue culture dishes in the presence or absence of NGF (50 ng/ml). Cells were supplemented with fresh oligonucleotides every 12 hours. Cell yield and BCL-2 level were determined 48 hours after irradiation. Cell yield was determined by counting cells in at least three representative field per each condition.

p75 NGF-R = p75 NGF-R antisense oligonucleotides in UV-irradiated, NGF-supplemented melanocytes; type: cell-based, human; details: UV 20 mJ/cm^2, 10 uM oligonucleotide, 48 hours
Method: The following sequences were used: Antisense 5' to 3' […] NO: 5); Nonsense 5' to 3° […] NO: 6) (negative control). […] Near confluent cells were irradiated using a 1 KW xenon arc solar simulator (XMN 1000-21, Optical Radiation Corp., Azuza, Calif.) with 20 mJ/cm^2 UV through the petri dish plastic cover. Irradiance was adjusted to 4×10^-5 UV cm^-2 and metered with a research 20 radiometer (model I[…], International Light, Newburyport, Mass.) fitted with a UVB probe at 285 Å 5 nm. […] After the initial 30 minute incubation cells were plated in 35 mm dishes in basal melanocyte medium without serum. Cells were supplemented with fresh oligonucleotides every 12 hours for 48 hours. Cells were visualized by phase contrast microscopy and pictures of representative fields were obtained. Cell yields were determined by counting cells in several representative fields.

MM4 cells = test: MM4 cell yields after UV or sham irradiation with growth factor supplementation; type: cell-based, human
Method: Melanocytes or MM4 cells were plated in 60 mm diameter tissue culture dishes. Melanocytes were maintained in Medium 199 supplemented with 7% fetal bovine serum (FBS), 10 ng/ml epidermal growth factor (Collaborative Research), […] (Sigma), […] (Collaborative Research), […] (Sigma), 1.4×10^−6 M hydrocortisone (Calbiochem), […] (Calbiochem), and 10 ng/ml basic fibroblast growth factor (Collaborative Research) (basal melanocyte medium). MM4 cells were maintained in 55.3% DME, 27.6% L15, 15% FBS, 1% nonessential amino acids (GIBCO BRL), 2 mM glutamine and 10 µg/ml insulin. After 24 hours, medium was replaced by phosphate buffered saline (PBS) and cells were irradiated using a 1 KW xenon arc solar simulator (XMN 1000-21, Optical Radiation Corp., Azuza, Calif.) with 5, 10, or 25 mJ/cm^2 UV through the petri dish plastic cover. Irradiance was adjusted to 4×10^−5 UV cm^−2 and metered with a research radiometer (model IL1700A, International Light, Newburyport, Mass.) fitted with a UVB probe at 285 Å 5 nm. After UV irradiation, cells were maintained in their respective media without FBS for 2 days (MM4 cells) or 3 days (melanocytes) and processed as indicated. Sham irradiated control cultures were handled identically but laced under a dark cloth adjacent to the UV beam.
FIGS. 2B and 2D show MM4 cell yields 24-72 hours after a single UV irradiation of 10 mJ/cm^2. FIGS. 2C and 2e show MM4 cell yields 24-72 hours after sham irradiation. Cells in FIGS. 2B and 2C were supplemented with 50 ng/ml NGF or diluent alone. Cells in FIGS. 2D and 2E were supplemented with 50 ng/ml bFGF or diluent alone.
Melanocytes or MM4 cells were plated as described in Example 1. After irradiation, melanocytes were maintained in basal melanocyte medium lacking FBS and hydrocortisone, with 50 ng/ml NGF or diluent alone (melanocyte medium). MM4 cells were maintained in DME supplemented with 50 ng/ml NGF or diluent alone.

[1] = target: human p75 nerve growth factor receptor (human) (UniProt P08138); test: cell-based or functional assay
[2] = target: p75^NTR over expressed on permanently transfected NIH 3T3 fibroblasts (p75^NTR NIH 3T3 cells); test: cell-based or functional assay
[3] = target: p75^NTR over expressed on permanently transfected NIH 3T3 fibroblasts (p75^NTR NIH 3T3 cells); test: competition with 125I beta-amyloid 1-40 on p75^NTR-NIH 3T3 cells, NGF 0-100 ng/ml, counting of lysates
[4] = target: the molecule itself; test: cross-linking of 3T3-p75 cells stimulated with βA, western blot with anti p75 antibodies
[5] = target: p75^NTR over expressed on permanently transfected NIH 3T3 fibroblasts (p75^NTR NIH 3T3 cells); test: competition with 125I beta-amyloid 1-40 on p75^NTR-NIH-3T3 cells in suspension, 4 hours, counting of lysates
[6] = pre-incubation with cyclic peptide

25-35: beta-amyloid fragment 25-35 (GSNKGAIIGLM; Amyloid-beta protein 42; UniProt P05067 696-706, looked up, fragment)
Bax induction versus 40-1 control fragment or irrelevant protein (Bax; 25 uM, within 4 days): 3 fold
Bax level as compared to the 40-1 peptide (Bax; 25 microM, four days): 160%

CATDIKGAEC (also: cyclic, ring type not given here)
c-jun transcription (human p75): decreased c-jun transcription
p75 aggregation (human p75): inhibited p75 aggregation
Cell yields, cyclic peptide and beta-amyloid versus beta-amyloid alone (p75^NTR-NIH 3T3 cells): significantly higher
JNK activation in NGF stimulated cells (p75; [6]): abrogated JNK activation
NGF-induced ceramide increase (p75; [6]): abrogated

CCCAGCGTGCGCCATCCTT (DNA, all phosphorothioate, methylation of C not given here; listed as Homo sapiens) [BCL-2 antisense oligonucleotides]
BCL-2 levels (Western blot) (BCL-2; 10 uM antisense, 48 hours after UV 10 mJ/cm^2): almost undetectable
Cell yields, NGF plus BCL-2 antisense versus NGF plus nonsense (BCL-2; UV 10 mJ/cm^2, 10 uM oligonucleotide, NGF 50 ng/ml, 48 hours): significantly lower

CKGAIC (also: cyclic, ring type not given here) [cyclic KGA-containing hexapeptide]
Cell yields, cyclic peptide and beta-amyloid versus beta-amyloid alone (p75^NTR-NIH 3T3 cells): significantly higher

GGCACCTGCCCCCATCGCC (DNA, all phosphorothioate, methylation of C not given here; listed as Homo sapiens) [antisense NGF-R, 19 mer antisense against the 5′ end of the human p75 NGF-R coding region]
NGF effect on melanocyte survival (p75 NGF-R): NGF does not have an effect on melanocyte survival

bFGF: basic fibroblast growth factor, a major mitogen for cells of melanocytic origin
MM4 cell survival after UV irradiation (MM4 cells; UV 10 mJ/cm^2, 50 ng/ml bFGF): failed to improve MM4 cell survival
Effect on sham irradiated MM4 cells (MM4 cells; sham irradiation, 50 ng/ml bFGF): mitogenic effect

beta-amyloid 1-40 peptide (from UniProt P05067 1-40)
melanocyte cell yield (% decrease in cell yield) [1]: 59
cell yield (% reduction of cell yield) [2]: 60

nerve growth factor (ligand)
intracellular ceramide (fold increase) [1]: 2
maximum inhibition of ^125I beta-amyloid binding [3]: 38 % inhibition

B1: NT-3: neurotrophin-3 (protein, UniProt P20783 139-257, looked up)
Neurotrophin-3: YAEHKSHRGEYSVCDSESLWVTDKSSAIDIRGHQVTVLGEIKTGNSPVKQYFYETRCKEARPVKNGCRGIDDKHWNSQCKTSQTYVRALTSENNKLVGWRWIRIDTSCVCALSRKIGRT
UV-induced JNK activation (p75; NT-3 pre-treatment, within 30 minutes of UV): partially decreased
Increase of intracellular ceramide (p75; within 3 hours): not by NT-3

B2: human p75 nerve growth factor receptor (receptor, UniProt P08138 29-427, looked up)
chain: KEACPTGLYTHSGECCKACNLGEGVAQPCGANQTVCEPCLDSVTFSDVVSATEPCKPCTECVGLQSMSAPCVEADDAVCRCAYGYYQDETTGRCEACRVCEAGSGLVFSCQDKQNTVCEECPDGTYSDEANHVDPCLPCTVCEDTERQLRECTRWADAECEEIPGRWITRSTPPEGSDSTAPSTQEPEAPPEQDLIASTVAGVVTTVMGSSQPVVTRGTTDNLIPVYCSILAAVVVGLVAYIAFKRWNSCKQNKQGANSRPVNQTPPPEGEKLHSDSGISVDSQSLHDQQPHTQTASGQALKGDGGLYSSLPPAKREEVEKLLNGSAGDTWRHLAGELGYQPEHIDSFTHEACPVRALLASWATQDSATLDALLAALRRIQRADLVESLCSESTATSPV
notes: whole, on cells; also called p75 NGF-R; p75^NTR
binding result [4]: binds

B3: cyclic peptide … (SEQ ID NO: 4) (peptide)
peptide: CVGSNKGAIC
modifications: not fully specified (bridges); also: cyclic peptide, ring type not given here
IC50 [5]: 25 nM
